Source: PubChem BioAssay (NCI)
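Values below derive from 48-hour exposures of cells grown in 96-well plates, with endpoints linearly interpolated between the two concentrations bracketing the appropriate inhibition level. The concentration for 50% growth inhibition is given as GI50. TGI: total growth inhibition.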

How the values were obtained:
Experiment in all cases: growth of human tumour cells (NCI), 48 h
786-0 renal = tested on: 786-0 renal
A498 renal = tested on: A498 renal
A549 NSCLC = tested on: A549 NSCLC
ACHN renal = tested on: ACHN renal
BT-549 breast = tested on: BT-549 breast
CAKI-1 renal = tested on: CAKI-1 renal
CCRF-CEM leukemia = tested on: CCRF-CEM leukemia
DU-145 prostate = tested on: DU-145 prostate
HCC-2998 colon = tested on: HCC-2998 colon
HCT-116 colon = tested on: HCT-116 colon
HCT-15 colon = tested on: HCT-15 colon
HOP-92 NSCLC = tested on: HOP-92 NSCLC
HT29 colon = tested on: HT29 colon
K-562 leukemia = tested on: K-562 leukemia
KM12 colon = tested on: KM12 colon
LOX IMVI melanoma = tested on: LOX IMVI melanoma
M14 melanoma = tested on: M14 melanoma
MALME-3M melanoma = tested on: MALME-3M melanoma
MCF7 breast = tested on: MCF7 breast
MDA-MB-231 breast = tested on: MDA-MB-231 breast
NCI-H226 lung = tested on: NCI-H226 lung
NCI-H23 lung = tested on: NCI-H23 lung
NCI-H460 lung = tested on: NCI-H460 lung
NCI-H522 lung = tested on: NCI-H522 lung
NCI/ADR-RES ovarian = tested on: NCI/ADR-RES ovarian
OVCAR-3 ovarian = tested on: OVCAR-3 ovarian
OVCAR-4 ovarian = tested on: OVCAR-4 ovarian
OVCAR-5 ovarian = tested on: OVCAR-5 ovarian
OVCAR-8 ovarian = tested on: OVCAR-8 ovarian
PC-3 prostate = tested on: PC-3 prostate
SF-268 CNS = tested on: SF-268 CNS
SF-295 CNS = tested on: SF-295 CNS
SF-539 CNS = tested on: SF-539 CNS
SK-MEL-2 melanoma = tested on: SK-MEL-2 melanoma
SK-MEL-28 melanoma = tested on: SK-MEL-28 melanoma
SK-OV-3 ovarian = tested on: SK-OV-3 ovarian
SN12C renal = tested on: SN12C renal
SNB-19 CNS = tested on: SNB-19 CNS
SNB-75 CNS = tested on: SNB-75 CNS
SW-620 colon = tested on: SW-620 colon
T-47D breast = tested on: T-47D breast
TK-10 renal = tested on: TK-10 renal
U251 CNS = tested on: U251 CNS
UACC-257 melanoma = tested on: UACC-257 melanoma
UO-31 renal = tested on: UO-31 renal
COLO 205 colon = tested on: COLO 205 colon
EKVX NSCLC = tested on: EKVX NSCLC
HOP-62 NSCLC = tested on: HOP-62 NSCLC
IGROV1 ovarian = tested on: IGROV1 ovarian
MDA-MB-435 = tested on: MDA-MB-435
MOLT-4 leukemia = tested on: MOLT-4 leukemia
RPMI-8226 leukemia = tested on: RPMI-8226 leukemia
RXF 393 renal = tested on: RXF 393 renal
SK-MEL-5 melanoma = tested on: SK-MEL-5 melanoma
UACC-62 melanoma = tested on: UACC-62 melanoma

## COc1ccc(C(=O)n2nc(/C=C/c3ccc(O)c(OC)c3)cc2/C=C/c2ccc(O)c(OC)c2)cc1
786-0 renal
  GI50: 445 nM
  TGI: 1840 nM
A498 renal
  GI50: 2250 nM
  TGI: 7260 nM
A549 NSCLC
  GI50: 1370 nM
  TGI: 14000 nM
ACHN renal
  GI50: 388 nM
  TGI: 17200 nM
BT-549 breast
  GI50: 466 nM
  TGI: 2320 nM
CAKI-1 renal
  GI50: 452 nM
  TGI: 15300 nM
CCRF-CEM leukemia
  GI50: 304 nM
  TGI: > 100000 nM
DU-145 prostate
  GI50: 668 nM
  TGI: 4560 nM
HCC-2998 colon
  GI50: 2160 nM
  TGI: 9190 nM
HCT-116 colon
  GI50: 362 nM
  TGI: 2690 nM
HCT-15 colon
  GI50: 338 nM
  TGI: 5960 nM
HOP-92 NSCLC
  GI50: 609 nM
  TGI: 4880 nM
HT29 colon
  GI50: 482 nM
  TGI: 2240 nM
K-562 leukemia
  GI50: 404 nM
  TGI: > 100000 nM
KM12 colon
  GI50: 387 nM
  TGI: 18100 nM
LOX IMVI melanoma
  GI50: 467 nM
  TGI: 3150 nM
M14 melanoma
  GI50: 328 nM
  TGI: 1320 nM
MALME-3M melanoma
  GI50: 556 nM
  TGI: 3590 nM
MCF7 breast
  GI50: 303 nM
  TGI: 1570 nM
MDA-MB-231 breast
  GI50: 575 nM
  TGI: 22600 nM
NCI-H226 lung
  GI50: 2060 nM
  TGI: 8520 nM
NCI-H23 lung
  GI50: 840 nM
  TGI: 4690 nM
NCI-H460 lung
  GI50: 370 nM
  TGI: 13300 nM
NCI-H522 lung
  GI50: 267 nM
  TGI: 785 nM
NCI/ADR-RES ovarian
  GI50: 492 nM
  TGI: 10500 nM
OVCAR-3 ovarian
  GI50: 449 nM
  TGI: 2280 nM
OVCAR-4 ovarian
  GI50: 695 nM
  TGI: 5440 nM
OVCAR-5 ovarian
  GI50: 2610 nM
  TGI: > 100000 nM
OVCAR-8 ovarian
  GI50: 860 nM
  TGI: 13100 nM
PC-3 prostate
  GI50: 496 nM
  TGI: 3780 nM
SF-268 CNS
  GI50: 476 nM
  TGI: 8420 nM
SF-295 CNS
  GI50: 1640 nM
  TGI: 6280 nM
SF-539 CNS
  GI50: 365 nM
  TGI: 2210 nM
SK-MEL-2 melanoma
  GI50: 360 nM
  TGI: 934 nM
SK-MEL-28 melanoma
  GI50: 602 nM
  TGI: 7450 nM
SK-OV-3 ovarian
  GI50: 465 nM
  TGI: 1800 nM
SN12C renal
  GI50: 635 nM
  TGI: 19300 nM
SNB-19 CNS
  GI50: 1090 nM
  TGI: 18800 nM
SNB-75 CNS
  GI50: 395 nM
  TGI: 1640 nM
SW-620 colon
  GI50: 455 nM
  TGI: 11900 nM
T-47D breast
  GI50: 737 nM
  TGI: 3950 nM
TK-10 renal
  GI50: 1910 nM
  TGI: 6660 nM
U251 CNS
  GI50: 597 nM
  TGI: 10900 nM
UACC-257 melanoma
  GI50: 2030 nM
  TGI: 12100 nM
UO-31 renal
  GI50: 393 nM
  TGI: 3200 nM

## Cc1cc(C(=O)NC(C)(C)C)cc(C#Cc2ccc3c4c(oc3c2)C(C)(C)c2cc(NS(C)(=O)=O)ccc2C4=O)n1
786-0 renal
  GI50: 1700 nM
  TGI: 12500 nM
A498 renal
  GI50: 2100 nM
  TGI: > 100000 nM
A549 NSCLC
  GI50: 3010 nM
  TGI: > 100000 nM
ACHN renal
  GI50: 1780 nM
  TGI: > 100000 nM
BT-549 breast
  GI50: 1260 nM
  TGI: 8100 nM
CAKI-1 renal
  GI50: 2510 nM
  TGI: > 100000 nM
CCRF-CEM leukemia
  GI50: 2120 nM
  TGI: > 100000 nM
COLO 205 colon
  GI50: 1340 nM
  TGI: 5500 nM
DU-145 prostate
  GI50: 3170 nM
  TGI: > 100000 nM
EKVX NSCLC
  GI50: 4980 nM
  TGI: > 100000 nM
HCC-2998 colon
  GI50: 3060 nM
  TGI: > 100000 nM
HCT-116 colon
  GI50: 1690 nM
  TGI: > 100000 nM
HCT-15 colon
  GI50: 1930 nM
  TGI: > 100000 nM
HOP-62 NSCLC
  GI50: 2310 nM
  TGI: > 100000 nM
HOP-92 NSCLC
  GI50: 102 nM
  TGI: 2440 nM
HT29 colon
  GI50: 1200 nM
  TGI: > 100000 nM
IGROV1 ovarian
  GI50: 2590 nM
  TGI: > 100000 nM
K-562 leukemia
  GI50: 2310 nM
  TGI: > 100000 nM
KM12 colon
  TGI: 40700 nM
LOX IMVI melanoma
  GI50: 2590 nM
  TGI: > 100000 nM
M14 melanoma
  GI50: 1260 nM
  TGI: 18600 nM
MALME-3M melanoma
  GI50: 1530 nM
  TGI: > 100000 nM
MCF7 breast
  GI50: 1760 nM
  TGI: > 100000 nM
MDA-MB-231 breast
  GI50: 3490 nM
  TGI: > 100000 nM
MDA-MB-435
  GI50: 518 nM
  TGI: 21100 nM
MOLT-4 leukemia
  GI50: 2390 nM
  TGI: > 100000 nM
NCI-H23 lung
  GI50: 2630 nM
  TGI: > 100000 nM
NCI-H460 lung
  GI50: 2310 nM
  TGI: > 100000 nM
NCI-H522 lung
  GI50: 4540 nM
  TGI: > 100000 nM
NCI/ADR-RES ovarian
  GI50: 2860 nM
  TGI: > 100000 nM
OVCAR-3 ovarian
  GI50: 2820 nM
  TGI: 31800 nM
OVCAR-4 ovarian
  GI50: 3200 nM
  TGI: > 100000 nM
OVCAR-5 ovarian
  GI50: 1330 nM
  TGI: > 100000 nM
OVCAR-8 ovarian
  GI50: 3090 nM
  TGI: > 100000 nM
PC-3 prostate
  GI50: 2960 nM
  TGI: > 100000 nM
RPMI-8226 leukemia
  GI50: 1110 nM
  TGI: 4670 nM
RXF 393 renal
  GI50: 535 nM
  TGI: 3340 nM
SF-268 CNS
  GI50: 3340 nM
  TGI: > 100000 nM
SF-295 CNS
  GI50: 2120 nM
  TGI: 5640 nM
SK-MEL-2 melanoma
  GI50: 1980 nM
  TGI: 7870 nM
SK-MEL-28 melanoma
  GI50: 1930 nM
  TGI: > 100000 nM
SK-MEL-5 melanoma
  GI50: 1840 nM
  TGI: 5310 nM
SN12C renal
  GI50: 1950 nM
  TGI: > 100000 nM
SNB-19 CNS
  GI50: 3230 nM
  TGI: > 100000 nM
SNB-75 CNS
  GI50: 1220 nM
  TGI: 22400 nM
SW-620 colon
  GI50: 1030 nM
  TGI: > 100000 nM
T-47D breast
  GI50: 2410 nM
  TGI: > 100000 nM
TK-10 renal
  GI50: 3990 nM
  TGI: > 100000 nM
U251 CNS
  GI50: 3100 nM
  TGI: > 100000 nM
UACC-62 melanoma
  GI50: 1400 nM
  TGI: > 100000 nM
UO-31 renal
  GI50: 1200 nM
  TGI: > 100000 nM
